The record followed here is paper PMC6563050, “Involvement of TREK-1 Channel in Cell Viability of H9c2 Rat Cardiomyoblasts Affected by Bupivacaine and Lipid Emulsion” (Cells, 2019).

Broadly, the IC50 is the concentration at which inhibition is half-maximal. Low readings indicate inhibition by little substance, high ones a need for much substance.

The assay addresses T1, TREK-1 (TWIK-related potassium channel-1) (Rattus norvegicus, UniProt Q920B6).
T1 construct: gene Kcnk2
T1 sequence (Q920B6 1-426): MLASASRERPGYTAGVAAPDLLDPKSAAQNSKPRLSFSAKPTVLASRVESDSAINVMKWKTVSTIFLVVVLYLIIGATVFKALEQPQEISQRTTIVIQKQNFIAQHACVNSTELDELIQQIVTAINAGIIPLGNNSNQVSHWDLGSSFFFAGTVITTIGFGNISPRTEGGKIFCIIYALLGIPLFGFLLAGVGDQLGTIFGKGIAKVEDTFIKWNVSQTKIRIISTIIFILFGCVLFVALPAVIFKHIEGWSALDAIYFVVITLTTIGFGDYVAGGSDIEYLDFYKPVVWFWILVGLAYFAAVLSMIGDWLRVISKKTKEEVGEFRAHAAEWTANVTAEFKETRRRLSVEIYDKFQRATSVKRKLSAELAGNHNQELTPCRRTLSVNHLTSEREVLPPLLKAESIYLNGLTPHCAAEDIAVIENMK
As to the kind of experiment: whole-cell and inside-out single-channel patch clamp of TREK-1 overexpressed in HEK-293 cells. In kind it is cell-based. (In general: The patch-clamp technique gives a direct electrical read-out from membranes.)

For the molecule `CCCCN1CCCCC1C(=O)Nc1c(C)cccc1C` (stereo not shown) [bupivacaine], half-maximal inhibition (IC50) required 302 ± 17.6 µM.
